Patent US10968203B2, “Pyrimidinyl-pyridyloxy-naphthyl compounds and methods of treating IRE1-related diseases and disorders” (Genentech, Inc., priority 2017, dated 2021)
Where a name gives a salt, the structure may show the parent alone.

System: XBP1s-luc 293 LUC
Assay: cellular PD assay, XBP1s-LUC reporter (Example 903)
Assay type: cell-based
Settings: Table 1; read-out: XBP1s-luc 293 LUC (IC50)
Procedure, shortened: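 A luciferase fusion, in frame and expressed only when the XBP1 transcript is spliced, served as the readout of cellular IRE1α activity in an XBP1-Luc reporter line.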

SMILES | IC50 [nM]
Cc1ccc2c(NCc3ccn(C)n3)cccc2c1Oc1ncccc1-c1ccnc(N[C@H]2CCCNC2)n1 [Example 262, (S)-4-(2-((2-Methyl-5-(((1-methyl-1H-pyrazol-3-yl)methyl)amino)naphthalen-1-yl)oxy)pyridin-3-yl)-N-(piperidin-3-yl)pyrimidin-2-amine] | 171
Cc1cn(C)nc1Nc1cccc2c(Oc3ncccc3-c3ccnc(N[C@H]4CCCNC4)n3)c(C)ccc12 [Example 358, (S)-4-(2-((5-((1,4-Dimethyl-1H-pyrazol-3-yl)amino)-2-methylnaphthalen-1-yl)oxy)pyridin-3-yl)-N-(piperidin-3-yl)pyrimidin-2-amine] | 266
CCCS(=O)(=O)Nc1c(Cl)ccc2c(Oc3ncccc3-c3ccnc(N[C@H]4CCCNC4)n3)c(C)ccc12 [Example 370, (S)—N-(2-Chloro-6-methyl-5-((3-(2-(piperidin-3-ylamino)pyrimidin-4-yl)pyridin-2-yl)oxy)naphthalen-1-yl)propane-1-sulfonamide] | 27.6
Cc1ccc2c(NC(=O)[C@@H]3CC34CCC4)c(F)ccc2c1Oc1ncccc1-c1ccnc(N[C@H]2CCCNC2)n1 (single isomer, unassigned) [Example 387] | 28.3
COC(C)CS(=O)(=O)Nc1cccc2c(Oc3ncccc3-c3ccnc(N[C@H]4CCCNC4)n3)c(C)ccc12 (stereo partly drawn) [Example 138, 2-Methoxy-N-(6-methyl-5-((3-(2-((S)-piperidin-3-ylamino)pyrimidin-4-yl)pyridin-2-yl)oxy)naphthalen-1-yl)propane-1-sulfonamide] | 388
Cc1ccc2c(NC(=O)Cc3cccc(F)c3)cccc2c1Oc1ncccc1-c1ccnc(N[C@H]2CCCNC2)n1 [Example 193, (S)-2-(3-Fluorophenyl)-N-(6-methyl-5-((3-(2-(piperidin-3-ylamino)pyrimidin-4-yl)pyridin-2-yl)oxy)naphthalen-1-yl)acetamide] | 86
CCCC(=O)Nc1cccc2c(Oc3ncccc3-c3ccnc(N[C@H]4CCCNC4)n3)c(C)ccc12 [Example 117, (S)—N-(6-Methyl-5-((3-(2-(piperidin-3-ylamino)pyrimidin-4-yl)pyridin-2-yl)oxy)naphthalen-1-yl)butyramide hydrochloride] | 145
Cc1ccc2c(NC(=O)[C@H]3CCC(F)(F)C3)cccc2c1Oc1ncccc1-c1ccnc(N[C@H]2CCCNC2)n1 (single isomer, unassigned) [Example 270] | 189
Cc1ccc2c(NCC[C@@H]3CC3(F)F)cccc2c1Oc1ncccc1-c1ccnc(N[C@H]2CCCNC2)n1 (single isomer, unassigned) [Example 291] | 361
Cc1ccc2c(NS(=O)(=O)Cc3ccccc3Cl)cccc2c1Oc1ncccc1-c1ccnc(N[C@H]2CCCNC2)n1 [Example 135, (S)-1-(2-Chlorophenyl)-N-(6-methyl-5-((3-(2-(piperidin-3-ylamino)pyrimidin-4-yl)pyridin-2-yl)oxy)naphthalen-1-yl)methanesulfonamide] | 10
Cc1ccc2c(NCc3ccn(C)n3)cccc2c1Oc1ncccc1-c1ccnc(N[C@@H]2CNC[C@H](C)C2)n1 [Example 330, 4-(2-((2-Methyl-5-(((1-methyl-1H-pyrazol-3-yl)methyl)amino)naphthalen-1-yl)oxy)pyridin-3-yl)-N-((3S,5R)-5-methylpiperidin-3-yl)pyrimidin-2-amine] | 197
CC[C@H]1CCN(c2cccc3c(Oc4ncccc4-c4ccnc(N[C@@H]5CNC[C@H](C)C5)n4)c(C)ccc23)C1=O (single isomer, unassigned) [Example 332] | 194
Cc1ccc2c(N3CCCC(C)C3=O)cccc2c1Oc1ncccc1-c1ccnc(N[C@H]2CCCNC2)n1 (mixture of isomers) [Example 354, 3-Methyl-1-(6-methyl-5-((3-(2-((S)-piperidin-3-ylamino)pyrimidin-4-yl)pyridin-2-yl)oxy)naphthalen-1-yl)piperidin-2-one] | 318
Cc1ccc2c(NC(=O)[C@@H]3C[C@H]3F)cccc2c1Oc1ncccc1-c1ccnc(N[C@H]2CCCNC2)n1 [Example 236, (1S,2R)-2-Fluoro-N-(6-methyl-5-((3-(2-(((S)-piperidin-3-yl)amino)pyrimidin-4-yl)pyridin-2-yl)oxy)naphthalen-1-yl)cyclopropane-1-carboxamide] | 174
Cc1ccc2c(NC(=O)CC3CCCCC3)c(F)ccc2c1Oc1ncccc1-c1ccnc(N[C@H]2CCCNC2)n1 [Example 364, (S)-2-Cyclohexyl-N-(2-fluoro-6-methyl-5-((3-(2-(piperidin-3-ylamino)pyrimidin-4-yl)pyridin-2-yl)oxy)naphthalen-1-yl)acetamide] | 216
Cc1ccc2c(NCCCF)cccc2c1Oc1ncccc1-c1ccnc(N[C@H]2CCCNC2)n1 [Example 241, (S)-4-(2-((5-((3-Fluoropropyl)amino)-2-methylnaphthalen-1-yl)oxy)pyridin-3-yl)-N-(piperidin-3-yl)pyrimidin-2-amine] | 141
Cc1ccc2c(NC(C)c3cscn3)cccc2c1Oc1ncccc1-c1ccnc(N[C@H]2CCCNC2)n1 (single isomer, unassigned) [Example 295] | 209
Cc1ccc2c(NC(=O)CC3(C)CC3)cccc2c1Oc1ncccc1-c1ccnc(N[C@H]2CCCNC2)n1 [Example 268, (S)—N-(6-Methyl-5-((3-(2-(piperidin-3-ylamino)pyrimidin-4-yl)pyridin-2-yl)oxy)naphthalen-1-yl)-2-(1-methylcyclopropyl)acetamide] | 257
Cc1ccc2c(NS(=O)(=O)C3CCCCC3)cccc2c1Oc1ncccc1-c1ccnc(N[C@H]2CCCNC2)n1 [Example 140, (S)—N-(6-Methyl-5-((3-(2-(piperidin-3-ylamino)pyrimidin-4-yl)pyridin-2-yl)oxy)naphthalen-1-yl)cyclohexanesulfonamide] | 177
Cc1ccc2c(Oc3ccccn3)cccc2c1Oc1ncccc1-c1ccnc(N[C@H]2CCCNC2)n1 [Example 239, (S)-4-(2-((2-Methyl-5-(pyridin-2-yloxy)naphthalen-1-yl)oxy)pyridin-3-yl)-N-(piperidin-3-yl)pyrimidin-2-amine] | 245
Cc1ccc2c(N3CCC(C)(C)C3=O)cccc2c1Oc1ncccc1-c1ccnc(N[C@H]2CCCNC2)n1 [Example 238, (S)-3,3-Dimethyl-1-(6-methyl-5-((3-(2-(piperidin-3-ylamino)pyrimidin-4-yl)pyridin-2-yl)oxy)naphthalen-1-yl)pyrrolidin-2-one] | 275
Cc1ccc2c(NS(=O)(=O)C3CCC3)cccc2c1Oc1ncccc1-c1ccnc(N[C@H]2CCCNC2)n1 [Example 107, (S)—N-(6-Methyl-5-((3-(2-(piperidin-3-ylamino)pyrimidin-4-yl)pyridin-2-yl)oxy)naphthalen-1-yl)cyclobutanesulfonamide hydrochloride] | 252
CCCS(=O)(=O)Nc1cccc2c(Oc3ncc(CC)cc3-c3ccnc(N[C@H]4CCCNC4)n3)c(C)ccc12 [Example 259, (S)—N-(5-((5-ethyl-3-(2-(piperidin-3-ylamino)pyrimidin-4-yl)pyridin-2-yl)oxy)-6-methylnaphthalen-1-yl)propane-1-sulfonamide] | 361

Same assay, conditions: Table 2; read-out: XBP1s-luc 293 LUC (IC50)

SMILES | IC50 [nM]
Cc1ccc2c(NS(=O)(=O)C[C@@H]3CCCO3)c(F)ccc2c1Oc1ncccc1-c1ccnc(N[C@H]2CCCNC2)n1 (single isomer, unassigned) [Example 416, hydrochloride] | 105
Cc1ccc2c(NS(=O)(=O)Cc3nn(C)cc3Cl)c(F)ccc2c1Oc1ncccc1-c1ccnc(N[C@H]2CCCNC2)n1 [Example 448, 1-(4-Chloro-1-methyl-pyrazol-3-yl)-N-[2-fluoro-6-methyl-5-[[3-[2-[[(3S)-3-piperidyl]amino]pyrimidin-4-yl]-2-pyridyl]oxy]-1-naphthyl]methanesulfonamide hydrochloride] | 19
CCC(F)(F)CS(=O)(=O)Nc1c(F)ccc2c(Oc3ncccc3-c3ccnc(N[C@@H]4CNC[C@@H](F)C4)n3)c(C)ccc12 (single isomer, unassigned) [Example 496, hydrochloride] | 17.9
Cc1ccc2c(NS(=O)(=O)c3ccc4c(c3)OCO4)c(F)ccc2c1Oc1ncccc1-c1ccnc(N[C@H]2CCCNC2)n1 [Example 403, N-[2-Fluoro-6-methyl-5-[[3-[2-[[(3S)-3-piperidyl]amino]pyrimidin-4-yl]-2-pyridyl]oxy]-1-naphthyl]-1,3-benzodioxole-5-sulfonamide] | 44
CO[C@H](C)CS(=O)(=O)Nc1c(F)ccc2c(Oc3ncccc3-c3ccnc(N[C@H]4CCCNC4)n3)c(C)ccc12 (single isomer, unassigned) [Example 394, hydrochloride] | 28
Cc1ccc2c(NS(=O)(=O)CCC(C)(F)F)c(F)ccc2c1Oc1ncccc1-c1ccnc(N[C@H]2CNC[C@H](F)C2)n1 (single isomer, unassigned) [Example 497, hydrochloride] | 5100
Cc1ccc2c(NS(=O)(=O)CCC(C)(F)F)c(F)ccc2c1Oc1ncccc1-c1ccnc(N[C@@H]2CNC[C@@H](F)C2)n1 (single isomer, unassigned) [Example 498, hydrochloride] | 33
O=S(=O)(CCC(F)(F)F)Nc1cccc2c(Oc3ncccc3-c3ccnc(N[C@H]4CCCNC4)n3)cccc12 [Example 451] | 345
COC(C)CS(=O)(=O)Nc1c(F)ccc2c(Oc3ncccc3-c3ccnc(N[C@H]4CCCNC4)n3)c(C)ccc12 (stereo partly drawn) [Example 404, N-(2-Fluoro-6-methyl-5-((3-(2-(((S)-piperidin-3-yl)amino)pyrimidin-4-yl)pyridin-2-yl)oxy)naphthalen-1-yl)-2-methoxypropane-1-sulfonamide] | 34
CCCS(=O)(=O)Nc1cccc2c(Oc3ncc(OC)cc3-c3ccnc(N[C@H]4CCCNC4)n3)c(C)ccc12 [Example 424, (S)—N-(5-((5-Methoxy-3-(2-(piperidin-3-ylamino)pyrimidin-4-yl)pyridin-2-yl)oxy)-6-methylnaphthalen-1-yl)propane-1-sulfonamide hydrochloride] | 392
